Here are results for 2 molecules from patent US20260146236A1, “HUMAN SEBACEOUS GLAND CARCINOMA CELL LINE AND US THEREOF” (SHANGHAI NINTH PEOPLE'S HOSPITAL, SHANGHAI JIAOTONG …, priority 2023, published 2026).

Like-named read-outs stand apart in the source and are kept apart here.

For assay [1], the system named is sebaceous gland carcinoma cell line SHNPH-SeC. Briefly: Drug sensitivity test of SHNPH-SeC cells (CCK-8 cell viability). In kind it is cell-based, human. Particulars: 48 h, cell viability by CCK-8, read-out: Half-maximal effective concentration (EC50). The procedure:
Cells in a logarithmic growth phase were harvested and prepared into a cell suspension at a concentration of 2×10^4 cells/mL. The cell suspension was inoculated into a 96-well plate at 100 μL/well. The cell proliferation in the 96-well plate was measured by the CCK-8 method on day 0, day 1, day 2, day 3, and day 4. The CCK-8 method was performed according to instructions of a kit. Specifically, a sample was incubated with 10 μL of a CCK-8 solution for 2 h in a 37° C. and 5% CO2 incubator, and an OD value was then measured at 450 nm. As shown in the growth curve of FIG. 3A, the sebaceous gland carcinoma cell line SHNPH-SeC required a doubling time of approximately 36 h, indicating a strong proliferative capacity.
Cells in a logarithmic growth phase were collected and prepared into a cell suspension with a concentration of 2×10^4 cells/mL. […] When a cell density reached approximately 80%, MMC was added to each well at concentrations of 0 μmol/L, 0.15625 μmol/L, 0.3125 μmol/L, 0.625 μmol/L, 1.25 μmol/L, 2.5 μmol/L, 5 μmol/L, 10 μmol/L, and 20 μmol/L or 5-FU was added to each well at concentrations of 0 μmol/L, 5 μmol/L, 10 μmol/L, 20 μmol/L, 40 μmol/L, 80 μmol/L, 160 μmol/L, 320 μmol/L, and 640 μmol/L. 48 h later, a cell viability in each well was detected by the CCK-8 method, with a specific process as described in section 2.3. […]

The subject of assay [2] is sebaceous gland carcinoma cell line BP50 without a TP53 mutation. The note with it: BP50 cells without a TP53 mutation, previously reported; cited from earlier work.

For `O=c1[nH]cc(F)c(=O)[nH]1` [5-FU, 5-fluorouracil], in assay [1] (Homo sapiens), the EC50 turned out to be 83 µM.

Take `CO[C@@]12[C@H](COC(N)=O)C3=C(C(=O)C(C)=C(N)C3=O)N1C[C@@H]1N[C@@H]12` [MMC, mitomycin C]: the EC50 in assay [2] is 10.4 µM; in assay [1], 1.13 µM.
